Measured values: ChEMBL document CHEMBL3046418, “Synthesis and Herbicidal Activity of Sulfonylurea Compounds with Imidazo [1, 2-a] pyridine Moiety” (2001)

Legend:
Format in all cases: functional
Avena fatua [1] = experiment: Herbicidal activity against Avena fatua after 4 weeks by pre-emergence greenhouse test; design: concentration or dose not given beside the values
Stellaria media [2] = experiment: Herbicidal activity against Stellaria media after 4 weeks by pre-emergence greenhouse test; design: concentration or dose not given beside the values
Avena fatua [3] = experiment: Herbicidal activity against Avena fatua after 3 weeks by post-emergence greenhouse test; design: concentration or dose not given beside the values
Chenopodium album [4] = experiment: Herbicidal activity against Chenopodium album after 3 weeks by post-emergence greenhouse test; design: concentration or dose not given beside the values
Alopecurus myosuroides [5] = experiment: Herbicidal activity against Alopecurus myosuroides after 3 weeks by post-emergence greenhouse test; design: concentration or dose not given beside the values
Matricaria chamomilla [6] = experiment: Herbicidal activity against Matricaria chamomilla after 4 weeks by pre-emergence greenhouse test; design: concentration or dose not given beside the values
Triticum aestivum [7] = experiment: Phytotoxic activity against Triticum aestivum (wheat) after 3 weeks by post-emergence greenhouse test; design: concentration or dose not given beside the values
Chenopodium album [8] = experiment: Herbicidal activity against Chenopodium album after 4 weeks by pre-emergence greenhouse test; design: concentration or dose not given beside the values
Alopecurus myosuroides [9] = experiment: Herbicidal activity against Alopecurus myosuroides after 4 weeks by pre-emergence greenhouse test; design: concentration or dose not given beside the values
Mutarda arvensis [10] = experiment: Herbicidal activity against Sinapis arvensis after 4 weeks by pre-emergence greenhouse test; design: concentration or dose not given beside the values
Mutarda arvensis [11] = experiment: Herbicidal activity against Sinapis arvensis after 3 weeks by post-emergence greenhouse test; design: concentration or dose not given beside the values
Bromus tectorum [12] = experiment: Herbicidal activity against Bromus tectorum after 3 weeks by post-emergence greenhouse test; design: concentration or dose not given beside the values
Triticum aestivum [13] = experiment: Phytotoxic activity against Triticum aestivum (wheat) after 4 weeks by pre-emergence greenhouse test
Stellaria media [14] = experiment: Herbicidal activity against Stellaria media after 3 weeks by post-emergence greenhouse test; design: concentration or dose not given beside the values
Matricaria chamomilla [15] = experiment: Herbicidal activity against Matricaria chamomilla after 3 weeks by post-emergence greenhouse test; design: concentration or dose not given beside the values
Bromus tectorum [16] = experiment: Herbicidal activity against Bromus tectorum after 4 weeks by pre-emergence greenhouse test; design: concentration or dose not given beside the values

Row | Compound | Activity (Avena fatua [1]) | Activity (Stellaria media [2]) | Activity (Avena fatua [3]) | Activity (Chenopodium album [4]) | Activity (Alopecurus myosuroides [5]) | Activity (Matricaria chamomilla [6]) | Activity (Triticum aestivum [7]) | Activity (Chenopodium album [8]) | Activity (Alopecurus myosuroides [9]) | Activity (Mutarda arvensis [10]) | Activity (Mutarda arvensis [11]) | Activity (Bromus tectorum [12]) | Phytotoxicity (Triticum aestivum [13]) | Activity (Stellaria media [14]) | Activity (Matricaria chamomilla [15]) | Activity (Bromus tectorum [16])
1 | COc1cc(OC)nc(NC(=O)NS(=O)(=O)c2c([S+](C)[O-])nc3ccccn23)n1 (stereo unspecified) | 0% | 0% | 0% | 0% | 0% | 51% | 0% | 0% | 0% | 51% | 76% | 1% | 0% | 0% | 76% | 0%
2 | COc1cc(OC)nc(NC(=O)NS(=O)(=O)c2c(S(C)(=O)=O)nc3ccccn23)n1 | 1% | 51% | 1% | 1% | 76% | 88% | 1% | 1% | 76% | 100% | 88% | 76% | 0% | 76% | 88% | 76%
3 | CCCS(=O)(=O)c1nc2ccccn2c1S(=O)(=O)NC(=O)Nc1nc(OC)cc(OC)n1 | 0% | 76% | 1% | 0% | 76% | 88% | 0% | 0% | 76% | 51% | 76% | 51% | 0% | 76% | 51% | 1%
4 | CCCSc1nc2ccccn2c1S(=O)(=O)NC(=O)Nc1nc(OC)cc(OC)n1 | 0% | 0% | 0% | 0% | 1% | 88% | 0% | 0% | 1% | 1% | 51% | 1% | 0% | 1% | 0% | 0%
5 | COc1cc(OC)nc(NC(=O)NS(=O)(=O)c2c(SC(C)C)nc3ccccn23)n1 | 0% | 0% | 0% | 1% | 1% | 88% | 0% | 1% | 0% | 1% | 51% | 1% | 0% | 1% | 51% | 0%
6 | COc1cc(OC)nc(NC(=O)NS(=O)(=O)c2c(Sc3ccccc3)nc3ccccn23)n1 | 0% | 0% | 0% | 0% | 0% | 51% | 1% | 0% | 0% | 1% | 51% | 0% | 0% | 1% | 1% | 0%
7 | COc1cc(OC)nc(NC(=O)NS(=O)(=O)c2c(SC)nc3ccccn23)n1 | 0% | 51% | 0% | 0% | 1% | 88% | 0% | 51% | 1% | 1% | 88% | 1% | 0% | 1% | 76% | 0%
8 | COc1cc(OC)nc(NC(=O)NS(=O)(=O)c2c([S+]([O-])C(C)C)nc3ccccn23)n1 (stereo unspecified) | 0% | 0% | 0% | 1% | 1% | 1% | 0% | 0% | 0% | 1% | 1% | 1% | 0% | 1% | 1% | 0%
9 | COc1cc(OC)nc(NC(=O)NS(=O)(=O)c2c([S+]([O-])c3ccccc3)nc3ccccn23)n1 (stereo unspecified) | 0% | 0% | 0% | 0% | 1% | 1% | 0% | 0% | 0% | 1% | 51% | 1% | 0% | 1% | 1% | 0%
10 | COc1cc(OC)nc(NC(=O)NS(=O)(=O)c2c(S(=O)(=O)C(C)C)nc3ccccn23)n1 | 1% | 51% | 1% | 1% | 88% | 88% | 0% | 76% | 88% | 88% | 51% | 51% | 0% | 76% | 51% | 51%
11 | CC[S+]([O-])c1nc2ccccn2c1S(=O)(=O)NC(=O)Nc1nc(OC)cc(OC)n1 (stereo unspecified) | 0% | 1% | 0% | 1% | 1% | 88% | 0% | 1% | 1% | 1% | 51% | 51% | 0% | 1% | 76% | 0%
12 | CCS(=O)(=O)c1nc2ccccn2c1S(=O)(=O)NC(=O)Nc1nc(Cl)cc(OC)n1 | 0% | 1% | 1% | 1% | 51% | 51% | 0% | 0% | 1% | 76% | 100% | 51% | 0% | 1% | 1% | 1%
13 | COc1cc(OC)nc(NC(=O)NS(=O)(=O)c2c(S(=O)(=O)c3ccccc3)nc3ccccn23)n1 | 0% | 0% | 0% | 0% | 0% | 1% | 0% | 0% | 0% | 1% | 51% | 0% | 0% | 1% | 1% | 0%
14 | CCSc1nc2ccccn2c1S(=O)(=O)NC(=O)Nc1nc(OC)cc(OC)n1 | 0% | 0% | 1% | 1% | 51% | 88% | 0% | 1% | 51% | 51% | 76% | 1% | 0% | 1% | 51% | 0%
15 | CCS(=O)(=O)c1nc2ccccn2c1S(=O)(=O)NC(=O)Nc1nc(C)cc(C)n1 | 0% | 0% | 51% | 51% | 51% | 1% | 1% | 1% | 0% | 51% | 76% | 51% | 0% | 1% | 1% | 1%
16 | CCC[S+]([O-])c1nc2ccccn2c1S(=O)(=O)NC(=O)Nc1nc(OC)cc(OC)n1 (stereo unspecified) | 0% | 0% | 0% | 1% | 1% | 76% | 0% | 0% | 0% | 1% | 51% | 1% | 0% | 51% | 1% | 0%
